Measurements: patent US10059741B2 (priority 2015, dated 2018)
Values joined by “and” are separate entries in the source; they are usually repeats but may differ in a detail not shown here. Equal entries are not always repeated. Where two headings read alike, the source gives them in different places. Bridge positions count the residues as written; N and C are the ends. Square brackets hold non-standard residues; d marks the D form. Peptide text beside a SMILES is read from it. S5 = C=CCCC[C@](C)(N)C(=O)O; Nle = CCCC[C@H](N)C(=O)O; Aib = CC(C)(N)C(=O)O

Legend:
[1] = tested on: H1N1 California/07/2009; test: microbe, parasite or virus in culture; assay type: cell-based, influenza A virus
[2] = tested on: H3N2 Perth/16/2009; test: microbe, parasite or virus in culture; assay type: cell-based, influenza A virus
[3] = tested on: H7N9 A/Anhui/1/2013; test: microbe, parasite or virus in culture; assay type: cell-based, influenza A virus
[4] = tested on: Influenza B Brisbane/60/2008; test: Cytopathic effect (CPE) inhibition in MDCK cells, neutral red; assay type: cell-based; details: read-out: EC50
[5] = tested on: H1N1 A/Solomon Island/03/2006; assay type: cell-based, influenza A virus; details: read-out: EC50
[6] = tested on: H5N1 A/Hong Kong/213/2003; test: microbe, parasite or virus in culture; assay type: cell-based, influenza A virus
[7] = tested on: Influenza A H3N2 Influenza A/Brisbane/10/2007; test: microbe, parasite or virus in culture; assay type: cell-based, influenza A virus
[8] = Plasma PK in a cyno monkey, single subcutaneous dose
[9] = tested on: Influenza B/Brisbane/60/2008; test: microbe, parasite or virus in culture; assay type: cell-based
[10] = in vitro; details: dog
[11] = tested on: Influenza B Florida/04/2006; test: Cytopathic effect (CPE) inhibition in MDCK cells, neutral red; assay type: cell-based; details: read-out: EC50
[12] = tested on: Influenza A H1N1 Influenza A/California/7/2009; test: microbe, parasite or virus in culture; assay type: cell-based, influenza A virus
[13] = tested on: influenza virus, various viral strains; assay type: cell-based
[14] = tested on: H5N1 A/Duck/MN/1525/81; test: microbe, parasite or virus in culture; assay type: cell-based, influenza A virus
[15] = tested on: Influenza A H1N1 Influenza A/Texas/4/2009; test: microbe, parasite or virus in culture; assay type: cell-based, influenza A virus
[16] = tested on: H3N2 Perth/16/2009; test: microbe, parasite or virus in culture; assay type: cell-based, influenza A virus; details: Influenza A virus, H3N2, MDCK, read-out: EC50 (μM) H3N2 Perth/16/2009
[17] = tested on: influenza virus, various viral strains; test: Influenza antiviral evaluation assay (CPE, neutral red dye uptake) in MDCK cells against various viral strains (Tables 8, 9); assay type: cell-based
[18] = tested on: H1N1 California/07/2009; test: microbe, parasite or virus in culture; assay type: cell-based, influenza A virus; remark: listed apart in the source
[19] = tested on: H1N1 A/Brisbane/59/2007; test: Cytopathic effect (CPE) inhibition in MDCK cells, neutral red; assay type: cell-based, influenza A virus
[20] = tested on: influenza virus, various viral strains; test: organism not typed; assay type: cell-based
[21] = tested on: Madin Darby canine kidney (MDCK) cells
[22] = cynomolgus monkey, sc, 2.25 mg/kg
[23] = Influenza A virus, H1N1, MDCK, read-out: EC50 (μM) H1N1 California/07/2009
[24] = MDCK, Influenza A H5N1 Duck/MN/1525/81, Visual
[25] = Influenza B virus, MDCK, Influenza B Influenza B/Brisbane/60/2008, CellTiter-Glo

## CCCC[C@H](NC(C)=O)C(=O)N[C@@H](CC(=O)O)C(=O)N[C@H](C(=O)N[C@@H](CC(N)=O)C(=O)N[C@@]1(C)CCCC=CCCC[C@@](C)(C(=O)N[C@@H](CC(C)C)C(=O)N[C@@H](CCCCN)C(=O)N[C@H](C(=O)NC(C)(C)C(=O)N[C@@H](C)C(=O)N[C@@H](CCC(N)=O)C(N)=O)C(C)C)NC(=O)[C@H](CC(C)C)NC(=O)[C@H](CC(C)C)NC(=O)[C@H]([C@@H](C)O)NC1=O)C(C)C [AP1, Ac-NleDVN$TLL$LKVAibAQ-NH2] (Ac-[Nle]DVN[S5]TLL[S5]LKV[Aib]AQ-NH2; staple 5-9)
[1]; read-out: EC50
  EC50: 28 µM
[1]; read-out: EC90
  EC90: > 65 µM
[2]
  EC90: 28 µM
[2]; read-out: EC50
  EC50: 12 µM
[3]; read-out: EC50
  EC50: > 100 µM
[4]
  EC50: 6.9 µM
[5]
  EC50: 3 µM and 1.8 µM
[6]; read-out: EC50
  EC50: > 100 µM
[7]; read-out: EC50
  EC50: > 100 µM
[7]; read-out: EC90
  EC90: > 100 µM
[8]; cyno monkey, single subcutaneous dose 2.25 mg/kg
  time at which drug levels were measureable (last time point assessed): 96 h
[8]; [22]
  MRT: 21 h
  half-life: 13 h
[9]
  EC50: > 100 µM
  EC90: > 100 µM
[10]; CC50
  CC50: > 100 µM
[11]
  EC50: 11 µM
[12]; read-out: EC50
  EC50: > 100 µM
[12]; read-out: EC90
  EC90: > 100 µM
[13]
  EC90: > 100 µM
[14]; read-out: EC50
  EC50: 6.3 µM and 6.4 µM
[15]; read-out: EC50
  EC50: > 100 µM
[15]; read-out: EC90
  EC90: > 100 µM

## NC(=O)c1ncn([C@@H]2O[C@H](CO)[C@@H](O)[C@H]2O)n1 [Ribavirin, reference compound]
[16]
  EC50: 10 to 25 µM
[17]
  EC50: 9.3 µM and 9.6 µM and 8.9 µM
[17]; MDCK
  EC50: 9.8 µM
[1]; Influenza A virus, H1N1, MDCK
  EC90: 5.5 µM
[1]; [23]
  EC50: 1.5 to 10 µM
[2]; Influenza A virus, H3N2, MDCK, read-out: EC50 (μM) H3N2 Perth/16/2009
  EC50: 1.5 to 10 µM
[18]
  EC50: 8.5 µM and 6.8 µM and 10 µM
[18]; [23]
  EC50: 10 to 25 µM
[3]; Influenza A virus, H7N9, MDCK, Influenza A H7H9 A/Anhui/1/2013, Neutral Red
  EC50: 18 µM
[3]; Influenza A virus, H7N9, MDCK, Influenza A H7N9 A/Anhui/1/2013, Drug Assay Neutral Red
  EC50: 3 µM
[4]; Influenza B virus, MDCK, Influenza B Brisbane/60/2008, Neutral Red
  EC50: 5.6 µM
[19]
  EC50: 5.6 µM
[19]; Influenza A virus, H1N1, MDCK
  EC50: 7.2 µM
[20]
  EC90: 4.1 µM
[20]; MDCK
  EC90: 5.2 µM
[20]; MDCK, Influenza A H1N1 A/Solomon Is./3/2006-M, Drug Assay Visual
  EC50: 10 µM
[20]; MDCK, Influenza A H1N1 California/04/2009-M, Visual
  EC50: 10 µM
[20]; MDCK, Influenza A H1N1 Solomon Is./3/2006-M, Visual
  EC50: 10 µM
[20]; MDCK, Influenza A H3N2 Victoria/3/75-M, Visual
  EC50: 10 µM
[20]; MDCK, Influenza A H5N1 A/Hong Kong/213/2003, Drug Assay Visual
  EC50: 4.2 µM
[20]; [24]
  EC50: 10 µM
  EC90: 9 µM
[20]; MDCK, Influenza A H5N1 Hong Kong/213/2003, Visual
  EC50: 43 µM
[20]; MDCK, Influenza A H7N9 A/Anhui/1/2013, Drug Assay Visual
  EC50: 3.2 µM
[20]; MDCK, Influenza B Sichuan/379/99-M, Visual
  EC50: 10 µM
[6]; Influenza A virus, H5N1, MDCK, Influenza A H5N1 A/Hong Kong/213/2003, Drug Assay Neutral Red
  EC50: 3.6 µM
[6]; Influenza A virus, H5N1, MDCK, Influenza A H5N1 Hong Kong/213/2003, Neutral Red
  EC50: 39 µM
[7]; Influenza A virus, H3N2, MDCK
  EC50: 2.81 µM
  EC90: 11.8 µM
[9]; [25]
  EC50: 66.2 µM
  EC90: > 100 µM
[21]; MDCK cells, run with Influenza A H5N1 Duck/MN/1525/81, Neutral Red
  CC50: > 320 µM
[21]; MDCK cells, run with Influenza A H5N1 Duck/MN/1525/81, Visual
  CC50: > 320 µM
[21]; MDCK cells, run with Influenza A H5N1 Hong Kong/213/2003, Neutral Red
  CC50: > 1000 µM
[21]; MDCK cells, run with Influenza A H5N1 Hong Kong/213/2003, Visual
  CC50: > 1000 µM
[21]; run with Influenza A H5N1 A/Hong Kong/213/2003, Neutral Red
  CC50: > 1000 µM
[21]; run with Influenza A H5N1 A/Hong Kong/213/2003, Visual
  CC50: > 1000 µM
[21]; run with Influenza A H7N9 A/Anhui/1/2013, Neutral Red
  CC50: > 1000 µM
[21]; run with Influenza A H7N9 A/Anhui/1/2013, Visual
  CC50: > 1000 µM
[10]; CC50 (μM) H1N1 California/07/2009
  CC50: > 100 µM
[10]; CC50 (μM) H3N2 Perth/16/2009
  CC50: > 100 µM
[11]; Influenza B virus, MDCK, Influenza B Florida/04/2006, Neutral Red
  EC50: 4.8 µM
[12]; Influenza A virus, H1N1, MDCK
  EC50: 6.53 µM
  EC90: 16.2 µM
[14]; Influenza A H5N1 Duck/MN/1525/81, Neutral Red
  EC50: 5.6 µM
[14]; Influenza A virus, H5N1, MDCK, Influenza A H5N1 Duck/MN/1525/81, Neutral Red
  EC50: 9.6 µM
[15]; Influenza A virus, H1N1, MDCK
  EC50: 14.6 µM
  EC90: > 100 µM
